Columns and labels:
Assay type in all cases: in vivo
[1] = test system: Puccinia recondita f. sp. tritici; assay: Test B: wheat leaf rust control on wheat seedlings; settings: wheat seedlings, 100 = 100% disease control, 0 = no control
Zymoseptoria tritici = assay: Test C: wheat leaf blotch control on wheat seedlings; settings: 250 ppm, wheat seedlings, 100 = 100% disease control, 0 = no control
Phakopsora pachyrhizi = assay: Test A: Asian soybean rust control on soybean seedlings; settings: soybean seedlings, 100 = 100% disease control, 0 = no control
Botrytis cinerea = assay: Test E: tomato Botrytis control on tomato seedlings; settings: 250 ppm, 100 = 100% disease control, 0 = no control
Phytophthora infestans = assay: whole plant or invertebrate; settings: tomato seedlings, 100 = 100% disease control, 0 = no control; for Test F disease control rating: 250 ppm
[2] = test system: Erysiphe graminis f. sp. tritici; assay: Test G: wheat powdery mildew control on wheat seedlings; settings: 250 ppm, 100 = 100% disease control, 0 = no control

Compound	Test B disease control rating ([1]; 250 ppm)	Test C disease control rating (Zymoseptoria tritici)	Test B disease control rating ([1]; 50 ppm)	Test A disease control rating (Phakopsora pachyrhizi; 50 ppm)	Test A disease control rating (Phakopsora pachyrhizi; 250 ppm)	Test E disease control rating (Botrytis cinerea)	Test F disease control rating (Phytophthora infestans)	Test G disease control rating [2]	further results
CCOC(=O)c1cnn(-c2ccc(C(C)OC(=O)C(C)NC(=O)c3nccc(OC)c3O)cc2)c1 (mixture of isomers) [Compound 50]	68%	54%	–	–	–	–	–	–	–
COc1ccnc(C(=O)NC(C)C(=O)OC(C)c2ccc(C3CCCC3)cc2)c1O (mixture of isomers) [Compound 65]	–	–	98%	100%	–	–	–	–	–
COc1ccnc(C(=O)NC(C)C(=O)OC(C)c2ccc(C3CC3)cc2)c1OC(C)=O (mixture of isomers) [Compound 71]	–	–	–	89%	–	–	–	–	–
COc1ccnc(C(=O)NC(C)C(=O)OC(C)C23CC4CC(CC(C4)C2)C3)c1O (racemic) [Compound 44]	–	–	–	–	–	–	–	–	pest or weed control at 50 ppm ([1]; Puccinia recondita, 50 ppm, read-out: Test B disease control rating): 55%; pest or weed control at 50 ppm (Phakopsora pachyrhizi; Phakopsora pachyrhizi, 50 ppm, read-out: Test A disease control rating): 75%
COc1ccnc(C(=O)NC(C)C(=O)OC(C)c2ccc3ccccc3c2)c1O (racemic) [Compound 76]	–	–	–	–	–	–	–	–	pest or weed control at 250 ppm ([1]; Puccinia recondita, 250 ppm, read-out: Test B disease control rating): 100%; pest or weed control at 250 ppm (Phakopsora pachyrhizi; Phakopsora pachyrhizi, 250 ppm, read-out: Test A disease control rating): 100%; pest or weed control at 250 ppm (Botrytis cinerea; Botrytis cinerea, read-out: Test E disease control rating): 0%; pest or weed control at 250 ppm (Phytophthora infestans; Phytophthora infestans, in Solanum lycopersicum, read-out: Test F disease control rating, 250 ppm): 0%; pest or weed control at 250 ppm (Zymoseptoria tritici; Zymoseptoria tritici, read-out: Test C disease control rating): 99%
COc1ccnc(C(=O)N[C@@H](C)C(=O)OC(C)C2CCCCC2)c1O (single isomer, unassigned) [Compound 51]	–	–	100%	100%	–	–	–	–	–
COc1ccnc(C(=O)N[C@@H](C)C(=O)OC(C)C2CCCCC2)c1O (single isomer, unassigned) [Compound 52]	–	–	9%	32%	–	–	–	–	–
COc1ccnc(C(=O)N[C@@H](C)C(=O)OC(C)c2ccc(C3CCCCC3)cc2)c1O (single isomer, unassigned) [Compound 73]	–	–	41%	0%	–	–	–	–	–
COc1ccnc(C(=O)N[C@@H](C)C(=O)OC(C)c2ccc(C3CCCCC3)cc2)c1O (single isomer, unassigned) [Compound 74]	–	–	99%	100%	–	–	–	–	–
COc1ccnc(C(=O)N[C@@H](C)C(=O)OC(C)c2ccccc2Oc2ccccc2)c1O (single isomer, unassigned) [Compound 105]	28%	67%	–	–	98%	0%	0%	0%	–
COc1ccnc(C(=O)N[C@@H](C)C(=O)OC(C)c2ccccc2Oc2ccccc2)c1O (single isomer, unassigned) [Compound 106]	92%	90%	–	–	100%	16%	0%	0%	–
COc1ccnc(C(=O)N[C@@H](C)C(=O)OC(C)c2ccccc2Oc2ccccc2)c1OC(C)=O (single isomer, unassigned) [Compound 107]	98%	87%	–	–	100%	0%	0%	0%	–
COc1ccnc(C(=O)N[C@@H](C)C(=O)OC(C)c2ccccc2Oc2ccccc2)c1OC(C)=O (single isomer, unassigned) [Compound 108]	32%	75%	–	–	43%	0%	0%	0%	–
COc1ccnc(C(=O)N[C@@H](C)C(=O)OC(C)c2ccccc2Cc2ccccc2)c1O (single isomer, unassigned) [Compound 109]	98%	85%	–	–	100%	98%	0%	0%	–
COc1ccnc(C(=O)N[C@@H](C)C(=O)OC(c2ccc(C3CCCCC3)cc2)C(C)C)c1OC(C)=O (stereo partly shown) [Compound 96]	–	–	95%	94%	–	–	–	–	–

From US20230131966A1, “FUNGICIDAL AMIDES” (FMC Corporation, priority 2020, published 2023)
